{
  "source": "ChEMBL document CHEMBL4196011",
  "about": "“The lead optimization of the polyamine conjugate of flavonoid with a naphthalene motif: Synthesis and biological evaluation” (Eur J Med Chem, 2018)",
  "key": {"[1]": {"experiment": "Drug localization in mitochondria of human HepG2 cells at 7.5 uM after 8 hrs by MitoTracker Green dye-based confocal fluorescence microscopic analysis", "type": "ADME", "settings": "hepg2, 8 h"}, "HepG2 [2]": {"test_system": "HepG2", "experiment": "Induction of apoptosis in human HepG2 cells assessed as necrotic cells at 2.5 uM after 36 hrs by Annexin V-FITC/propidium iodide staining-based flow cytometry (reference value: 0.24%)", "type": "functional"}, "HepG2 [3]": {"test_system": "HepG2", "experiment": "Induction of apoptosis in human HepG2 cells assessed as viable cells at 2.5 uM after 24 hrs by Annexin V-FITC/propidium iodide staining-based flow cytometry (reference value: 96.97%)", "type": "functional", "settings": "HepG2, 24 h, read-out: Activity"}, "HepG2 [4]": {"test_system": "HepG2", "experiment": "Induction of apoptosis in human HepG2 cells assessed as viable cells at 5 uM after 8 hrs by Annexin V-FITC/propidium iodide staining-based flow cytometry (reference value: 97.43%)", "type": "functional", "settings": "HepG2, 8 h, read-out: Activity"}, "HepG2 [5]": {"test_system": "HepG2", "experiment": "Induction of apoptosis in human HepG2 cells assessed as upregulation of active caspase 9 level after 48 hrs by immunofluorescence staining-based high content screening assay", "type": "functional, cell-based"}, "HepG2 [6]": {"test_system": "HepG2", "experiment": "Induction of apoptosis in human HepG2 cells at 5 uM preincubated cells with autophagy inhibitor 3-MA for 2 hrs followed by compound addition measured after 48 hrs by Annexin V-FITC/propidium iodide staining-based flow cytometry relative to control", "type": "functional", "set-up": "scale not given: the % may be the effect or the level left"}, "HepG2 [7]": {"test_system": "HepG2", "experiment": "Induction of apoptosis in human HepG2 cells assessed as late apoptotic cells at 5 uM after 24 hrs by Annexin V-FITC/propidium iodide staining-based flow cytometry (reference value: 0.88%)", "type": "functional"}, "[8]": {"experiment": "Drug localization in golgi apparatus of human HepG2 cells at 7.5 uM after 8 hrs by Golgi-Tracker Red dye-based confocal fluorescence microscopic analysis", "type": "ADME, subcellular", "settings": "hepg2, 8 h"}, "[9]": {"biological_target": "MAP kinase p38 (Homo sapiens) (UniProt O15264+Q15759+Q16539+P53778)", "experiment": "Induction of p38 phosphorylation in human HepG2 cells after 48 hrs by immunofluorescence staining-based high content screening assay", "type": "cell-based"}, "[10]": {"biological_target": "c-Jun N-terminal kinase, JNK (Homo sapiens) (UniProt P45983+P53779+P45984)", "experiment": "Induction of JNK phosphorylation in human HepG2 cells after 48 hrs by immunofluorescence staining-based high content screening assay", "type": "cell-based"}, "HepG2 [11]": {"test_system": "HepG2", "experiment": "Induction of ROS generation in human HepG2 cells after 48 hrs by DCFH-DA staining-based fluorescence assay", "type": "functional, cell-based"}, "HepG2 [12]": {"test_system": "HepG2", "experiment": "Induction of apoptosis in human HepG2 cells assessed as late apoptotic cells at 7.5 uM after 24 hrs by Annexin V-FITC/propidium iodide staining-based flow cytometry (reference value: 0.88%)", "type": "functional"}, "HepG2 [13]": {"test_system": "HepG2", "experiment": "Antiproliferative activity against human HepG2 cells after 48 hrs by MTT assay", "type": "functional, cell-based", "settings": "HepG2, 48 h"}, "[14]": {"experiment": "Drug localization in nucleus of human HepG2 cells at 7.5 uM after 8 hrs by Hoechst 33342 staining-based HCS analysis", "type": "ADME, subcellular", "settings": "hepg2, 8 h"}, "HepG2 [15]": {"test_system": "HepG2", "experiment": "Induction of autophagy in human HepG2 cells assessed as formation of autolysosomes after 48 hrs by MDC staining-based assay", "type": "functional, cell-based"}, "HepG2 [16]": {"test_system": "HepG2", "experiment": "Induction of apoptosis in human HepG2 cells assessed as late apoptotic cells at 7.5 uM after 48 hrs by Annexin V-FITC/propidium iodide staining-based flow cytometry (reference value: 0.95%)", "type": "functional"}, "HepG2 [17]": {"test_system": "HepG2", "experiment": "Induction of apoptosis in human HepG2 cells assessed as early apoptotic cells at 2.5 uM after 36 hrs by Annexin V-FITC/propidium iodide staining-based flow cytometry (reference value: 2.08%)", "type": "functional"}, "HepG2 [18]": {"test_system": "HepG2", "experiment": "Induction of apoptosis in human HepG2 cells assessed as viable cells at 5 uM after 36 hrs by Annexin V-FITC/propidium iodide staining-based flow cytometry (reference value: 96.6%)", "type": "functional", "settings": "HepG2, 36 h, read-out: Activity"}, "HepG2 [19]": {"test_system": "HepG2", "experiment": "Induction of apoptosis in human HepG2 cells assessed as necrotic cells at 2.5 uM after 48 hrs by Annexin V-FITC/propidium iodide staining-based flow cytometry (reference value: 0.08%)", "type": "functional"}, "HepG2 [20]": {"test_system": "HepG2", "experiment": "Induction of autophagy in human HepG2 cells assessed as upregulation of beclin1 expression at 5 uM by Western blot analysis", "type": "functional, cell-based"}, "HepG2 [21]": {"test_system": "HepG2", "experiment": "Induction of apoptosis in human HepG2 cells assessed as necrotic cells at 5 uM after 8 hrs by Annexin V-FITC/propidium iodide staining-based flow cytometry (reference value: 0.40%)", "type": "functional"}, "Mus musculus": {"test_system": "Mus musculus", "experiment": "Toxicity in Kunming mouse xenografted with […] H22 cells assessed as effect on liver weight index at 30 mg/kg, iv administered for 7 consecutive days", "type": "organism-based", "settings": "in vivo"}, "HepG2 [22]": {"test_system": "HepG2", "experiment": "Induction of apoptosis in human HepG2 cells assessed as necrotic cells at 7.5 uM after 8 hrs by Annexin V-FITC/propidium iodide staining-based flow cytometry (reference value: 0.40%)", "type": "functional"}, "HepG2 [23]": {"test_system": "HepG2", "experiment": "Induction of apoptosis in human HepG2 cells assessed as increase in cleaved PARP1 levels after 48 hrs by immunofluorescence staining-based high content screening assay", "type": "functional, cell-based"}, "K562": {"test_system": "K562", "experiment": "Antiproliferative activity against human K562 cells after 48 hrs by MTT assay", "type": "functional, cell-based", "settings": "K562, 48 h"}, "HepG2 [24]": {"test_system": "HepG2", "experiment": "Induction of apoptosis in human HepG2 cells assessed as increase in p53 protein expression after 48 hrs by immunofluorescence staining-based high content screening assay", "type": "functional, cell-based"}, "HepG2 [25]": {"test_system": "HepG2", "experiment": "Induction of apoptosis in human HepG2 cells assessed as increase in Bid expression levels after 48 hrs by immunofluorescence staining-based high content screening assay", "type": "functional, cell-based"}, "HepG2 [26]": {"test_system": "HepG2", "experiment": "Induction of apoptosis in human HepG2 cells assessed as viable cells at 2.5 uM after 36 hrs by Annexin V-FITC/propidium iodide staining-based flow cytometry (reference value: 96.6%)", "type": "functional", "settings": "HepG2, 36 h, read-out: Activity"}, "HepG2 [27]": {"test_system": "HepG2", "experiment": "Induction of apoptosis in human HepG2 cells assessed as necrotic cells at 7.5 uM after 24 hrs by Annexin V-FITC/propidium iodide staining-based flow cytometry (reference value: 0.12%)", "type": "functional"}, "HepG2 [28]": {"test_system": "HepG2", "experiment": "Induction of apoptosis in human HepG2 cells assessed as necrotic cells at 2.5 uM after 24 hrs by Annexin V-FITC/propidium iodide staining-based flow cytometry (reference value: 0.12%)", "type": "functional"}, "HepG2 [29]": {"test_system": "HepG2", "experiment": "Induction of apoptosis in human HepG2 cells assessed as late apoptotic cells at 7.5 uM after 36 hrs by Annexin V-FITC/propidium iodide staining-based flow cytometry (reference value: 1.08%)", "type": "functional"}, "[30]": {"experiment": "Drug uptake in human HepG2 cells assessed as PAT-mediated compound uptake at 10 uM after 8 hrs in presence of spermidine by HCS analysis", "type": "ADME, cell-based", "settings": "hepg2, 8 h"}, "HepG2 [31]": {"test_system": "HepG2", "experiment": "Induction of autophagy in human HepG2 cells assessed as increase in LC3-2 expression at 5 uM in presence of autophagy inhibitor 3-MA by Western blot analysis", "type": "functional, cell-based"}, "HepG2 [32]": {"test_system": "HepG2", "experiment": "Induction of apoptosis in human HepG2 cells assessed as early apoptotic cells at 2.5 uM after 48 hrs by Annexin V-FITC/propidium iodide staining-based flow cytometry (reference value: 1.30%)", "type": "functional"}, "HepG2 [33]": {"test_system": "HepG2", "experiment": "Induction of apoptosis in human HepG2 cells assessed as increase in Bax protein expression after 48 hrs by immunofluorescence staining-based high content screening assay", "type": "functional, cell-based"}, "H22": {"test_system": "H22", "experiment": "Antitumor activity against […] xenografted in Kunming mouse assessed as tumor growth inhibition at 40 mg/kg, iv for 7 consecutive days measured on day 16", "type": "functional", "settings": "384 h, read-out: TGI"}},
  "note": "The source made the active and inactive calls. The rule behind the calls is not given here.",
  "data": [
    {"smiles": "COc1ccc2cc(-c3oc4c(CNCCCCN)cccc4c(=O)c3OC)ccc2c1Br.Cl.Cl", "values": [
      {"measurement": "Drug uptake", "setting": "[1]", "value": "Active"},
      {"measurement": "Activity", "setting": "HepG2 [2]", "value": 3.9, "unit": "%"},
      {"measurement": "viability at 2.5 µM", "setting": "HepG2 [3]", "value": 88.7, "unit": "%"},
      {"measurement": "viability at 5 µM", "setting": "HepG2 [4]", "value": 93, "unit": "%"},
      {"measurement": "Activity", "setting": "HepG2 [5]", "value": "Dose-dependent effect"},
      {"measurement": "Activity", "setting": "HepG2 [6]", "value": 53.07, "unit": "%"},
      {"measurement": "Activity", "setting": "HepG2 [7]", "value": 2.03, "unit": "%"},
      {"measurement": "Drug uptake", "setting": "[8]", "value": "Not Active"},
      {"measurement": "Activity", "setting": "[9]", "value": "Dose-dependent effect"},
      {"measurement": "Activity", "setting": "[10]", "value": "Dose-dependent effect"},
      {"measurement": "Activity", "setting": "HepG2 [11]", "value": "Dose-dependent effect"},
      {"measurement": "Activity", "setting": "HepG2 [12]", "value": 9.48, "unit": "%"},
      {"measurement": "IC50", "setting": "HepG2 [13]", "value": 7.1, "unit": "µM"},
      {"measurement": "Drug uptake", "setting": "[14]", "value": "Not Active"},
      {"measurement": "Activity", "setting": "HepG2 [15]", "value": "Dose-dependent effect"},
      {"measurement": "Activity", "setting": "HepG2 [16]", "value": 31.22, "unit": "%"},
      {"measurement": "Activity", "setting": "HepG2 [17]", "value": 6.24, "unit": "%"},
      {"measurement": "viability at 5 µM", "setting": "HepG2 [18]", "value": 81, "unit": "%"},
      {"measurement": "Activity", "setting": "HepG2 [19]", "value": 0.29, "unit": "%"},
      {"measurement": "Activity", "setting": "HepG2 [20]", "value": "Active"},
      {"measurement": "Activity", "setting": "HepG2 [21]", "value": 0.03, "unit": "%"},
      {"measurement": "Activity", "setting": "Mus musculus", "value": "Non-Toxic"},
      {"measurement": "Activity", "setting": "HepG2 [22]", "value": 0.05, "unit": "%"},
      {"measurement": "Activity", "setting": "HepG2 [23]", "value": "Dose-dependent effect"},
      {"measurement": "IC50", "setting": "K562", "value": 13.4, "unit": "µM"},
      {"measurement": "Activity", "setting": "HepG2 [24]", "value": "Dose-dependent effect"},
      {"measurement": "Activity", "setting": "HepG2 [25]", "value": "Dose-dependent effect"},
      {"measurement": "viability at 2.5 µM", "setting": "HepG2 [26]", "value": 84, "unit": "%"},
      {"measurement": "Activity", "setting": "HepG2 [27]", "value": 4.51, "unit": "%"},
      {"measurement": "Activity", "setting": "HepG2 [28]", "value": 0, "unit": "%"},
      {"measurement": "Activity", "setting": "HepG2 [29]", "value": 6.3, "unit": "%"},
      {"measurement": "Drug uptake", "setting": "[30]", "value": "Not Active"},
      {"measurement": "Activity", "setting": "HepG2 [31]", "value": "inactive"},
      {"measurement": "Activity", "setting": "HepG2 [32]", "value": 21.8, "unit": "%"},
      {"measurement": "Activity", "setting": "HepG2 [33]", "value": "Dose-dependent effect"},
      {"measurement": "inhibition in vivo at 40 mg/kg", "setting": "H22", "value": 69.1, "unit": "%"}
    ]}
  ]
}
